The target of one experiment is NEP enzyme (UniProt P08473). Kind of experiment: In vitro NEP enzyme inhibition assay. Format: biochemical. To be noted: fluorogenic peptide substrate; human or rat NEP not given. As to the method: The inhibitory activities of compounds at human and rat NEP and human ACE were determined using in vitro assays as described below.
Rat NEP was prepared from the kidneys of adult Sprague Dawley rats. Whole kidneys were washed in cold PBS and brought up in ice-cold lysis buffer (1% Triton X-114, 150 mM NaCl, 50 mM Tris pH 7.5; Bordier (1981) J. Biol. Chem. 256:1604-1607) in a ratio of 5 mL of buffer for every gram of kidney. Samples were homogenized using a polytron hand held tissue grinder on ice. Homogenates were centrifuged at 1000×g in a swinging bucket rotor for 5 minutes at 3° C. The pellet was resuspended in 20 mL of ice cold lysis buffer and incubated on ice for 30 minutes. […] Protein concentrations were quantitated using a BCA detection system with BSA as a standard. […]
The assays were performed in 384-well white opaque plates at room temperature using the respective fluorogenic peptides at a concentration of 10 μM in assay buffer (50 mM Tris/HCl at 25° C., 100 mM NaCl, 0.01% Tween-20, 1 μM Zn, 0.025% BSA). […] The rat NEP enzyme preparation was used at a concentration that yielded quantitative proteolysis of 3 μM of Mca-RRL within 20 minutes at room temperature.
Assays were started by adding 25 μL of enzyme to 12.5 μL of test compound at 12 concentrations ([…]). […] Plates were read on a fluorometer with excitation and emission wavelengths set to 320 nm and 405 nm, respectively. […]

The target of a further experiment is T1, human AT1 receptor (Homo sapiens, UniProt P30556).
T1 construct: expressed in transfected cells; membranes
T1 sequence (P30556 1-359): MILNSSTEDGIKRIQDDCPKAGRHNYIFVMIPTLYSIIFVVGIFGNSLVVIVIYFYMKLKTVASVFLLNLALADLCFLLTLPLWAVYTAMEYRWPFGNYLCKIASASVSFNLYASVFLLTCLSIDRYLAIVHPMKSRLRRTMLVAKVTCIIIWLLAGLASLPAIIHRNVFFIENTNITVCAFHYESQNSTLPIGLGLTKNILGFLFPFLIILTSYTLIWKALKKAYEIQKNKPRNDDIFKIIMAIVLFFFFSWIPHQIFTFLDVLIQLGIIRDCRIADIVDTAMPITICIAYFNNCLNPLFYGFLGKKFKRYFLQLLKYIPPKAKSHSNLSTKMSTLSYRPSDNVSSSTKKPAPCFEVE
Put plainly: AT1 radioligand binding assay. To be noted: [Eu]AngII displacement, membranes of CHO-K1 cells expressing human AT1; read-out: pKi at the AT1 receptor (converted). As to the method:
These in vitro assays were used to assess the ability of test compounds to bind to the AT1 and the AT2 receptors.
Chinese hamster ovary (CHO-K1) derived cell lines stably expressing the cloned human AT1 or AT2 receptors, respectively, were grown in HAM's-F12 medium supplemented with 10% fetal bovine serum, 10 μg/ml penicillin/streptomycin, and 500 μg/ml geneticin in a 5% CO2 humidified incubator at 37° C. AT2 receptor expressing cells were grown in the additional presence of 100 nM PD123,319 (AT2 antagonist). When cultures reached 80-95% confluence, the cells were washed thoroughly in PBS and lifted with 5 mM EDTA. Cells were pelleted by centrifugation and snap frozen in MeOH-dry ice and stored at −80° C. until further use.
For membrane preparation, cell pellets were resuspended in lysis buffer (25 mM Tris/HCl pH 7.5 at 4° C., 1 mM EDTA, and one tablet of Complete Protease Inhibitor Cocktail Tablets with 2 mM EDTA per 50 mL buffer (Roche cat.#1697498, Roche Molecular Biochemicals, Indianapolis, Ind.)) and homogenized using a tight-fitting Dounce glass homogenizer (10 strokes) on ice. The homogenate was centrifuged at 1000×g, the supernatant was collected and centrifuged at 20,000×g. […] Protein concentration of the membrane suspension was determined by the method described in Bradford (1976) Anal Biochem. 72:248-54. […]

SMILES strings stand for the structures. Bounds are passed on as bounds.

Turning to `CCCC(=O)N(CCNC(=O)C(CS)CC(C)C)Cc1ccc(-c2ccccc2-c2nnn[nH]2)cc1` (centres unmarked) [Example 1, 2-Mercaptomethyl-4-methylpentanoic Acid (2-Butyryl-[2′-(1H-tetrazol-5-yl)biphenyl-4-ylmethyl]aminoethyl)amide], the “pIC50 for the NEP enzyme” value at NEP enzyme was “greater than or equal to 7.0”. In addition, the Ki at human AT1 receptor was less than 100 nM.

Source of the values: patent publication US7777077B2, “Dual-acting antihypertensive agents” (Theravance, Inc., priority 2007, dated 2010).
